Laboratory results: patent US20050255595A1, “Genetically modified non-human mammal cells, procedure for their production and use in toxicity tests” (priority 2002, published 2005)
Like-named read-outs stand apart in the source and are kept apart here.

How the values were obtained:
[1] = test system: single transgenic HPS70/hGH primary hepatocytes (PHGH); experiment: toxicity test, hGH secretion by primary transgenic hepatocytes (PHGH); format: cell-based, mice; settings: PHGH; 10^-5, 5x10^-5, 10^-4 M; 5 h; FIG. 1 graph A
Text: On the basis of the results illustrated, for the further analyses, clone no. […] The response to the toxic stress of the clone MMH/GH5 was then compared with the one obtained in single transgenic HPS70/hGH primary hepatocytes (PHGH). A representative sample of the cell line derived from said clone MMH/GH5 was deposited in accordance with and for the purposes of the Treaty of Budapest on the international recognition of deposit of micro-organisms for the purposes of the patents procedure with the AID “Centro di Biotecnologie Avanzate (CBA), Interlab Cell Line Collection (ICLC)” Servizio Biotecnologie, Largo R. Benzi, 10, 16132 Genova, Italy, on Jul. 30, 2002, where it was given identification number PD 02007.
(§1) In table 3 the cellular survival percentage was determined with the Trypan Blue exclusion method. […]
(§2) For treatment, the two types of cells were treated with different concentrations of the compounds for 1 or 5 hours and then with normal medium for a further 24 hours. The effects of the treatment were assessed as described previously for the inorganic toxicants.

[2] = test system: primary hepatocytes (PHGH); experiment: cellular survival of PHGH, Trypan Blue exclusion; format: cell-based, mice; settings: highest concentrations of the toxicant; Trypan Blue; FIG. 1 graph B
Text: This different behaviour is explained by the greater sensitivity to the toxicant of the PHGH with respect to the MMH/GH5 as shown by analysis of the cellular vitality performed with the Trypan Blue method (FIG. 1, graph B). […] Therefore the greater resistance of the cells MMH/GH/5 to the toxicants constitutes another evident advantage as it permits the exclusion of false negatives in which the non-release of hGH, due to cellular death, is interpreted as non-toxicity of the compound. When the supernatant is collected after 5 hours of treatment followed by 24 hours of culture with normal medium (FIG. 1 graph C) the PHGHs respond, at the lowest concentrations of the two toxicants, with high levels of secretion of hGH and, at the highest concentrations, with low levels of secretion of hGH (lower cellular survival, graph D).
as §1, §2

[3] = test system: MMH/GH cells, Clone 2; settings: for hGH secreted, 5 h: 5 h treatment; for hGH secreted, 5 + 24 h: 5 h treatment + 24 h recovery
[4] = test system: MMH/GH cells, Clone 4; settings: Clone 4; for hGH secreted, 5 h: 5 h treatment; for hGH secreted, 5 + 24 h: 5 h treatment + 24 h recovery
[5] = test system: MMH/GH5 cells (Clone 5); settings: for hGH secreted, 5 h / hGH secreted, 5 + 24 h: Clone 5; for hGH secreted, 5 h: 5 h treatment; for hGH secreted, 5 + 24 h: 5 h treatment + 24 h recovery
[6] = test system: MMH/GH cells, Clone 9; settings: for hGH secreted, 5 h: 5 h treatment; for hGH secreted, 5 + 24 h: 5 h treatment + 24 h recovery
[7] = test system: MMH/GH cells, Clone 10; settings: for hGH secreted, 5 h: 5 h treatment; for hGH secreted, 5 + 24 h: 5 h treatment + 24 h recovery
[8] = test system: MMH/GH cells, Clone 11; settings: Clone 11; for hGH secreted, 5 h: 5 h treatment; for hGH secreted, 5 + 24 h: 5 h treatment + 24 h recovery

SMILES: [Cl][Cd][Cl] [CdCl2]
- release of hGH in the culture medium in relation to concentration of the toxicant [1]: inversely proportional
- survival of the PHGHs [2]: practically nil
- hGH secreted, 5 h ([3]; 5x10^-5 M (As2/Cd2)): 0
- hGH secreted, 5 + 24 h ([3]; 5x10^-5 M (As2/Cd2)): 4
- hGH secreted, 5 h ([3]; 10^-4 M (As3/Cd3)): 0
- hGH secreted, 5 + 24 h ([3]; 10^-4 M (As3/Cd3)): 0
- hGH secreted, 5 h ([3]; 10^-5 M (As1/Cd1)): 0
- hGH secreted, 5 + 24 h ([3]; 10^-5 M (As1/Cd1)): 0
- hGH secreted, 5 h ([4]; 5x10^-5 M (As2/Cd2)): 0
- hGH secreted, 5 + 24 h ([4]; 5x10^-5 M (As2/Cd2)): 0
- hGH secreted, 5 h ([4]; 10^-4 M (As3/Cd3)): 0
- hGH secreted, 5 + 24 h ([4]; 10^-4 M (As3/Cd3)): 0
- hGH secreted, 5 h ([4]; 10^-5 M (As1/Cd1)): 0
- hGH secreted, 5 + 24 h ([4]; 10^-5 M (As1/Cd1)): 0
- hGH secreted, 5 h ([5]; 5x10^-5 M (As2/Cd2)): 50
- hGH secreted, 5 + 24 h ([5]; 5x10^-5 M (As2/Cd2)): 40
- hGH secreted, 5 h ([5]; 10^-4 M (As3/Cd3)): 90
- hGH secreted, 5 + 24 h ([5]; 10^-4 M (As3/Cd3)): 20
- hGH secreted, 5 h ([5]; 10^-5 M (As1/Cd1)): 25
- hGH secreted, 5 + 24 h ([5]; 10^-5 M (As1/Cd1)): 25
- release of hGH in the culture medium in relation to concentration of the toxicant ([5]; MMH/GH5, 10^-5, 5x10^-5, 10^-4 M, 5 h, FIG. 1 graph A): directly proportional to the concentration of the toxicant
- hGH secreted, 5 h ([6]; 5x10^-5 M (As2/Cd2)): 200
- hGH secreted, 5 + 24 h ([6]; 5x10^-5 M (As2/Cd2)): 0
- hGH secreted, 5 h ([6]; 10^-4 M (As3/Cd3)): 5
- hGH secreted, 5 + 24 h ([6]; 10^-4 M (As3/Cd3)): 0
- hGH secreted, 5 h ([6]; 10^-5 M (As1/Cd1)): 0
- hGH secreted, 5 + 24 h ([6]; 10^-5 M (As1/Cd1)): 0
- hGH secreted, 5 h ([7]; 5x10^-5 M (As2/Cd2)): 0
- hGH secreted, 5 + 24 h ([7]; 5x10^-5 M (As2/Cd2)): 12
- hGH secreted, 5 h ([7]; 10^-4 M (As3/Cd3)): 0
- hGH secreted, 5 + 24 h ([7]; 10^-4 M (As3/Cd3)): 7
- hGH secreted, 5 h ([7]; 10^-5 M (As1/Cd1)): 0
- hGH secreted, 5 + 24 h ([7]; 10^-5 M (As1/Cd1)): 25
- hGH secreted, 5 h ([8]; 5x10^-5 M (As2/Cd2)): 0
- hGH secreted, 5 + 24 h ([8]; 5x10^-5 M (As2/Cd2)): 0
- hGH secreted, 5 h ([8]; 10^-4 M (As3/Cd3)): 0
- hGH secreted, 5 + 24 h ([8]; 10^-4 M (As3/Cd3)): 0
- hGH secreted, 5 h ([8]; 10^-5 M (As1/Cd1)): 40
- hGH secreted, 5 + 24 h ([8]; 10^-5 M (As1/Cd1)): 0
